What was measured:
Format in all cases: cell-based, human
MIAPaCa-2 cells = assay: MTT cytotoxicity, pancreas cancer cells MIAPaCa-2; details: for selectivity index: MCF-10F/Beas2b vs MIAPaCa-2
Procedure, shortened: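 Cells were seeded at 5000 per well and treated next day with compound at 0.1, 1, 5 and 10 μM (final) for 48 and/or 72 h, with matched DMSO controls. MTT was added for 4 h and formazan was dissolved in DMSO and read at 570/630 nm. % viability against control gave IC50 from dose-response curves.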

CAKI-1 cells = assay: MTT cytotoxicity, kidney cancer cells CAKI-1
Procedure, shortened: (§1)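 Viability was quantified by MTT reduction following 48 and/or 72 h compound exposure at four concentrations (0.1, 1, 5, 10 μM). Values are percentages of DMSO-treated controls, with IC50 fitted from dose-response data.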

A498 cells = assay: MTT cytotoxicity, kidney cancer cells A498; details: for selectivity index: MCF-10F/Beas2b vs A498
Procedure, shortened: as §1

[1] = test system: pancreas and kidney cancer cells; assay: Apoptosis detection, Annexin V/PI flow cytometry, pancreas and kidney cancer cells
Method: After incubation with 2-indolinone compounds (IC50 μM concentration; 48 and/or 72 hours), cells are washed twice with PBS and the cell pellet is suspended in Annexin V binding buffer. After this incubation, cells are incubated with FITC-conjugated Annexin V and propidium iodine staining solution for 15 minutes in the dark and at room temperature. Then, cells are analyzed by flow cytometry (Beckman coulter, Navios) (Wlodkowic, D., Skommer, J, Darzynkiewicz, Z. 2009. Flow cytometry-based apoptosis detection, Methods Mol Biol., 559, 1-14).
Whether the 2-indolinone derivatives (5) with the highest selectivity index and general TKI activity stimulated apoptosis and necrosis is determined by Annexin V and propidium iodine staining in pancreas and kidney cancer cells. Annexin V/PI flow cytometry apoptosis values of the tested compounds Y1, Y2, Y3, Y4, Y8 and Y14 are found to be 40% and above in correlation with MTT results. The apoptosis rates of the control groups and the substances are analyzed by t test in GraphPad version 9.0.

[2] = MTT, no * mark (incubation time not specified)
[3] = no * mark (incubation time not specified)

Row | SMILES | selectivity index (MIAPaCa-2 cells) | IC50 (MIAPaCa-2 cells; [2]) | IC50 (CAKI-1 cells; [3]) | IC50 (A498 cells; [2]) | Annexin V/PI flow cytometry apoptosis values [1] | IC50 (MIAPaCa-2 cells; Homo sapiens, MIA PaCa-2, MTT, no * mark (incubation time not given)) | IC50 (CAKI-1 cells; Homo sapiens, CAKI-1, no * mark (incubation time not given)) | IC50 (A498 cells; Homo sapiens, A498, MTT, no * mark (incubation time not given)) | selectivity index (A498 cells)
1 | O=C1/C(=C\c2c[nH]c3ccccc23)c2ccccc2N1Cc1ccccc1 [Y1] | > 23 | 0.43 µM | 3.38 µM | 4.11 µM | ≥ 40% |  |  |  | 
2 | Cc1ccc2c(c1)/C(=C/c1c[nH]c3ccccc13)C(=O)N2Cc1ccccc1 [Y3] | > 77 |  |  |  | ≥ 40% | 0.13 µM | 4.01 µM | 0.87 µM | > 11
3 | O=C1/C(=C\c2c[nH]c3ccccc23)c2cc(OC(F)(F)F)ccc2N1Cc1ccccc1 [Y4] | > 19 | 0.53 µM | 3.79 µM | 4.23 µM | ≥ 40% |  |  |  | 
4 | Cc1ccc2c(c1)/C(=C/c1c[nH]c3ccccc13)C(=O)N2Cc1cccc(F)c1 [Y8] | > 19 | 0.54 µM | 3.28 µM | 0.93 µM | ≥ 40% |  |  |  | > 11

— patent US20260335282A1, “NOVEL 3-ARYLIDENE-2-INDOLINONE DERIVATIVES FOR THERAPEUTIC USE” (ISTANBUL UNIVERSITESI REKTORLUGU, priority 2022, published 2026)
